Results as given in patent publication US7928135B2, “Benzene, pyridine, and pyridazine derivatives” (Serenex, Inc., priority 2005, dated 2011).

Columns and labels:
PC-3 cell proliferation = assay: Cell proliferation assay (WST-1), PC-3; format: cell-based; conditions: Homo sapiens; PC-3 cells, WST-1 readout; read-out: inhibitory activity against PC-3 cell proliferation (IC50 range)
Protocol: A panel of cancer cell lines was obtained from the DCTP Tumor Repository, National Cancer Institute (Frederick, Md.) or ATCC (Rockville, Md.). Cell cultures were maintained in Hyclone RPMI 1640 medium (Logan, Utah) supplemented with 10% fetal bovine serum and 20 mM HEPES buffer, final pH 7.2, at 37° C. with a 5% CO2 atmosphere. Cultures were maintained at sub-confluent densities. Human umbilical vein endothelial cells (HUVEC) were purchased from Clonetics, a division of Cambrex (Walkersville, Md.). Cultures were established from cryopreserved stocks using Clonetics EGM-2 medium supplemented with 20 mM HEPES, final pH 7.2, at 37° C. with a 5% CO2 atmosphere.
For proliferation assays, cells were seeded with the appropriate medium into 96 well plates at 1,000-2,500 cells per well, depending on the cell line, and were incubated overnight. The following day, test compound, DMSO solution (negative control), or Actinomycin D (positive control) was added to the appropriate wells as 10× concentrated stocks prepared in phosphate buffered saline. The cell plates were then incubated for an additional 2-5 days, depending on the cell line, to allow proliferation to occur. To measure cell density, 50 μL of WST-1 solution (Roche Applied Science, Ind.) diluted 1:5 in phosphate buffered saline was added to each well, and the cells incubated for an additional 1-5 hrs., again depending on the cell line. Optical density was determined for each well at […] using a Tecan GeniosPro plate reader (RTP, NC). The percentage of cell growth was determined by comparing the cell growth in the presence of test compounds to the cells treated with DMSO vehicle (control, 100% growth) and cells treated with Actinomycin D (10 μM, 0% growth). […]

[1] = tested on: HSP-90 (heat shock protein 90); assay: Determination of affinity for HSP-90 (elution from purine affinity column, SDS-PAGE densitometry); format: binding; set-up: key: +++: very high; ++: high; +: moderate; conditions: elution of HSP-90 from purine affinity column with 20, 100 and 500 μM test compound
Protocol: Affinity of test compounds for HSP-90 was determined as follows: Protein mixtures obtained from a variety of organ tissues (for example: spleen, liver and lung) were reversibly bound to a purine affinity column to capture purine-binding proteins, especially HSP-90. The purine affinity column was washed several times, and then eluted with 20 μM, 100 μM, and 500 μM of test compound. Compounds of Formula I elute HP-90 in a dose-dependent manner vs. a control elution using dimethylsulfoxide. The elution profile of Formula I compounds was determined by 1-dimensional SDS polyacrylamide gel electrophoresis. Gels were stained with a fluorescent stain such as sypro ruby (a highly sensitive fluorescent protein stain that can readily detect less than 1 fmol of total protein, i.e., less than 0.04 ng for a 40 kDa protein) or silver nitrate. The gels were imaged using a standard flat bed gel imager and the amount of protein estimated by densitometry. The percent of HSP-90 protein eluted from the column at each concentration was determined and IC50 values were calculated from these estimates. The identity of a band containing HSP-90 was determined by protein sequencing using mass spectroscopy.
Compounds of the invention are inhibitors of HSP-90 (heat shock protein 90). Several exemplary compounds useful in the methods of the invention are listed below.

SMILES | IC50 (PC-3 cell proliferation) [µM] | relative binding affinity to HSP-90 [1]
COc1cc(Nc2cc(-n3c(C)cc4c3CC(C)(C)CC4=O)ccc2C(N)=O)cc(OC)c1OC [Compound 76, 2-[(3,4,5-trimethoxyphenyl)amino]-4-(2,6,6-trimethyl-4-oxo-4,5,6,7-tetrahydro-1H-indol-1-yl)benzamide] | 0.5 to 5 | +++
Cc1cc2c(n1-c1ccc(C(N)=O)c(-c3ccncc3)c1)CC(C)(C)CC2=O [Compound 77, 2-pyridin-4-yl-4-(2,6,6-trimethyl-4-oxo-4,5,6,7-tetrahydro-1H-indol-1-yl)benzamide] | 5 to 50 | ++
Cc1cc2c(n1-c1ccc(C(N)=O)c(NN3CCOCC3)c1)CC(C)(C)CC2=O [Compound 94, 2-(morpholin-4-ylamino)-4-(2,6,6-trimethyl-4-oxo-4,5,6,7-tetrahydro-1H-indol-1-yl)benzamide] | 5 to 50 | ++
CC(=O)Nc1cc(-n2cc(C)c3c2CC(C)(C)CC3=O)ccc1C(N)=O [Compound 98, 2-(acetylamino)-4-(3,6,6-trimethyl-4-oxo-4,5,6,7-tetrahydro-1H-indol-1-yl)benzamide] | < 0.5 | +++
Cc1cn(-c2ccc(C(N)=O)c(N3CCN(C)CC3)c2)c2c1C(=O)CC(C)(C)C2 [Compound 99, 2-(4-methylpiperazin-1-yl)-4-(3,6,6-trimethyl-4-oxo-4,5,6,7-tetrahydro-1H-indol-1-yl)benzamide] | 5 to 50 | ++
CCc1cc(-n2nc(C)c3c2CC(C)(C)CC3=O)ccc1C(N)=O [Compound 102, 2-ethyl-4-(3,6,6-trimethyl-4-oxo-4,5,6,7-tetrahydro-1H-indazol-1-yl)benzamide] | 5 to 50 | ++
CCCCSc1cc(-n2nc(C)c3c2CC(C)(C)CC3=O)ccc1C(N)=O [Compound 103, 2-(butylthio)-4-(3,6,6-trimethyl-4-oxo-4,5,6,7-tetrahydro-1H-indazol-1-yl)benzamide] | 0.5 to 5 | ++
Cc1cn(-c2ccc(C(N)=O)c(Sc3ccncc3)c2)c2c1C(=O)CC(C)(C)C2 [Compound 105, 2-(pyridin-4-ylthio)-4-(3,6,6-trimethyl-4-oxo-4,5,6,7-tetrahydro-1H-indol-1-yl)benzamide] | 5 to 50 | ++
Cc1nn(-c2ccc(C(N)=O)c(NC3CCC3)c2)c2c1C(=O)CC(C)(C)C2 [Compound 117, 2-(cyclobutylamino)-4-(3,6,6-trimethyl-4-oxo-4,5,6,7-tetrahydro-1H-indazol-1-yl)benzamide] | < 0.5 | +++
Cc1nn(-c2ccc(C(N)=O)c(NC(CCO)CCO)c2)c2c1C(=O)CC(C)(C)C2 [Compound 121, 2-{[3-hydroxy-1-(2-hydroxyethyl)propyl]amino}-4-(3,6,6-trimethyl-4-oxo-4,5,6,7-tetrahydro-1H-indazol-1-yl)benzamide] | 0.5 to 5 | +++
CC1(C)CC(=O)c2c(C(F)(F)F)nn(-c3ccc(C(N)=O)c(NCCNS(C)(=O)=O)c3)c2C1 [Compound 133, 4-[6,6-dimethyl-4-oxo-3-(trifluoromethyl)-4,5,6,7-tetrahydro-1H-indazol-1-yl]-2-({2-[(methylsulfonyl)amino]ethyl}amino)benzamide] | 5 to 50 | ++
